The record followed here is patent US5510340A, “Antihypercholesterolemic compounds and related pharmaceutical compositions and methods of use” (SRI International, priority 1992, dated 1996).

For assay [1], the system named is Cholesterol Biosynthesis in CHO Cells. Put plainly: In Vitro Assay for Inhibition of Cholesterol Biosynthesis in CHO Cells. It counts as cell-based, Chinese Hamster. Particulars: Cricetulus griseus, 14C-acetate incorporation into cholesterol, 16-18 h incubation with compound. The protocol:
Chinese Hamster ovary (CHO) cells were seeded at 1×10^5 cells per 60-mm Petri dish and incubated at 37° C. in F-12 medium supplemented with fetal calf serum (5%). After 24 h, the medium was aspirated and replaced with delipidated calf serum in F-12 medium containing the test compounds. At various concentrations, either ethanol or dimethyl sulfoxide was used to dissolve the test compounds to a final concentration of 0.1% in the cell medium. Controls contained the vehicle alone. After incubation for 16-18 h, ^14 C-acetate (20 μM final concentration) was added and incubation continued for 5.5 h. […] The cells were then scraped off the plates with a rubber policeman into saline (2 mL). An aliquot for protein was taken, and the remainder of the cell suspension was centrifuged at 800×g for 10 min. The supernatant was discarded and the pellet extracted by vortexing 15 s in chloroform:methanol (2 mL of 2:1). […] NaCl (0.4 mL) was added, vortexed, and centrifuged, and the top layer was discarded. A portion of the upper phase mixture of chloroform:methanol:water (0.4 mL of 3:48:47) was added and gently swirled to avoid mixing with the bottom layer. The resultant samples were centrifuged, and the top layer was discarded. The procedure was repeated before methanol was finally added to combine the two layers and the solvent was evaporated. Chloroform (200 μL) was added to the residue and an aliquot (150 μL) taken. To the aliquot was added cholesterol (40 μg in 20 μL), and the samples were concentrated. The lipids were dissolved in chloroform (50 μL) and spotted on silica gel G thin-layer chromatography plates. After development in hexane:ether:acetic acid (80:20:1), the ^14 C-cholesterol spot was located with iodine vapor and scraped into a scintillation vial, and the radioactivity was counted with a scintillation counter.

Assay [2] concerns Cholesterol Levels in Plasma of Rats. Kind of assay: Assay for Lowering Cholesterol Levels in Rats Fed Drug-Containing Food Ad Libitum. The format is in vivo, Male Sprague-Dawley rats. Conditions: rat plasma, mean ± S.E. The protocol:
(d.) Assay for Lowering Cholesterol Levels in Rats Fed Drug-Containing Food Ad Libitum:
Male Sprague-Dawley rats weighing 150 to 200 g were used for this experiment. The animals were divided into groups of six rats each. All groups were kept on a cholesterol-free diet throughout the entire experiment. This diet was prepared by adding the test compound in small portions (usually 100 mg) to 100 g of choleserol-free diet in a 1-liter glass separatory funnel with a stopper. The diet was thoroughly mixed after each addition of the test compound. The resulting diet was kept in a refrigerator at all times. Before feeding, the diet was allowed to warm to room temperature. The animals were housed individually in metabolic cages. All test groups were allowed free access to the cholesterol-free diet containing the proper doses of the test compound. A pair-fed group was assigned to each test group and allowed free access to the cholesterol-free diet only in the amount consumed by its corresponding counterpart on the previous day. The control group was allowed free access to the cholesterol-free diet with no restriction. The food consumption and body weights of all groups were recorded daily. Blood samples were taken from all groups on day 0 and every third or fourth day throughout the entire experiment. Plasma was obtained by drawing blood into EDTA-treated centrifuge tubes and centrifuging at 3000 rpm for 10 min. The total cholesterol level and HDL in each plasma sample were determined using a Gemini autoanalyzer.

For assay [3], the system named is Cholesterol Biosynthesis. Kind of assay: In Vivo Cholesterol Biosynthesis Inhibition in Rats with Oral Administration of Test Compounds (compound 13, gavage). On the set-up: species or system Male Sprague-Dawley rats. Particulars: rat plasma, 7 days; for 14C-Acetate Incorporation / Cholesterol Levels, HDL / 14C-Acetate Incorporation, Inhibition: gavage; for 14C-Acetate Incorporation: control 1200 ± 95; for Cholesterol Levels, HDL / Cholesterol Levels, Total: mean ± S.E.; for Cholesterol Levels, HDL: control 32 ± 2.1; for 14C-Acetate Incorporation, Inhibition: vs control; for Cholesterol Levels, Total: three daily doses via gavage, control 77.6 ± 2.3. The protocol:
(b.) In Vivo Cholesterol Biosynthesis Inhibition in Rats with Oral Administration of Test Compounds:
Male Sprague-Dawley rats weighing 120 to 150 g were used. The animals were placed on a cholesterol-free diet immediately upon arrival and housed in a room with a reverse light cycle. One week after they had adapted to the light cycle, the experiment was begun by gavaging the animals three times daily with various amounts of test compound 13 suspended in 1.0 mL of saline. The control group received 1.0 mL of saline alone. On the seventh day of the experiment, sodium 1-^14 C! acetate (20 μCi/rat) was injected intraperitoneally 30 min after the oral administration (gavage) of test compounds and 2 h before the mid-dark point in the diurnal cycle; 4 h after the ^14 C-acetate injection, the animals were killed and blood samples were collected after decapitation. Plasma was obtained by centrifuging blood in an EDTA-treated centrifuge tube at 3000 rpm for 10 min. Cholesterol synthesis was measured by determining the level of ^14 C-labeled nonsaponifiable lipid present in 1.0 mL of plasma; 1.0 mL of plasma was first mixed with 1.0 mL of saline, followed by 5.0 mL of 10% KOH in absolute ethanol. Samples were saponified at 75° C. for 1 h. After cooling, 44,000 dpm, 0.5 nmol of 1,2-^3 H! cholesterol was added to each sample as an internal standard for calculating recovery through the extraction procedure. Samples were extracted once with 5 mL of petroleum ether, and the organic phase was backwashed with 5 mL of saline. The extracts were dried on a nitrogen evaporator, and the residue was reconstituted into 0.5 mL of CHCl3 -MeOH (2:1). The 0.5-mL reconstituted samples were transferred into counting vials containing 2 mL of ethanol, and both ^3 H and ^14 C were counted in 10 mL of scintillation fluid. The ^3 H-cholesterol internal standard recovery value from each sample was used to correct each sample to 100% recovery of ^14 C-cholesterol. The total cholesterol level and HDL in each plasma sample was also measured. The comparison between test groups and the control group was evaluated for both cholesterol levels and ^14 C-acetate incorporation.

Where [4] appears, read: Day 0, cholesterol-free diet containing 0.2% inhibitor, control 29 ± 0.9.
Setting [5] is: Day 0, cholesterol-free diet containing 0.2% inhibitor, control 70 ± 1.
Setting [6] is: Day 4, cholesterol-free diet containing 0.2% inhibitor, control 28 ± 2.
[7] abbreviates: Day 4, cholesterol-free diet containing 0.2% inhibitor, control 77 ± 2.
The mark [8] stands for this setting: Day 7, cholesterol-free diet containing 0.2% inhibitor, control 26 ± 2.
The mark [9] stands for this setting: Day 7, diet containing 0.2% inhibitor, control 76 ± 4, ^b significantly lower than Day 0 (P < 0.001), pair-fed (P < 0.005) and control (P < 0.001), ^c significantly lower than pair-fed (P < 0.02).
[10] abbreviates: Day 10, cholesterol-free diet containing 0.2% inhibitor, control 32 ± 1.5.
Setting [11] is: Day 10, cholesterol-free diet containing 0.2% inhibitor, control 81 ± 3.

The structures appear in SMILES notation.

By IC50 is commonly meant the concentration at which inhibition is half-maximal.

`CC(C)CCC[C@@H](C)[C@H]1Cc2n[n+]([O-])c3c4c2[C@]1(C)CC[C@@H]4[C@@]1(C)CC[C@H](O)C[C@@H]1C3`: the IC50 in assay [1] was less than 0.25 µM.

For the compound `CC(C)CCC[C@@H](C)[C@H]1Cc2nnc3c4c2[C@]1(C)CC[C@@H]4[C@@]1(C)CC[C@H](O)C[C@@H]1C3` [Compound 13, pyridazino 3',4',5',6':7,8,14,15!5α-cholestan-3β-ol], the “Cholesterol levels, LDL” value in assay [2] (setting [4]) was 34 ± 1.8 mg/100 mL; in assay [2] (setting [6]), 28 ± 2 mg/100 mL; in assay [2] (setting [8]) it was 17 ± 3 mg/100 mL; in assay [2] (setting [10]) it was 29 ± 2 mg/100 mL. Besides, the “Cholesterol Levels, Total” value in assay [2] (setting [5]) was 74 ± 1 mg/100 mL; in assay [2] (setting [7]) it was 62 ± 2 mg/100 mL; in assay [2] (setting [9]) it was 46 ± 3 mg/100 mL; in assay [2] (setting [11]), 47 ± 5 mg/100 mL; in assay [3] (0.16 mg/rat/day), 66.8 ± 3.4 Mg/100 ml; in assay [3] (0.33 mg/rat/day) it was 62.6 ± 2.4 Mg/100 ml. In addition, the “Cholesterol Levels, Total” value in assay [3] (1.0 mg/rat/day) came out at 61.4 ± 3.0 Mg/100 ml; in assay [3] (3.0 mg/rat/day), 60.8 ± 0.9 Mg/100 ml; in assay [3] (7.5 mg/rat/day), 44.0 ± 1.0 Mg/100 ml. Moreover, the “14C-Acetate Incorporation” value worked out at 696 ± 107 cpm/ml in assay [3] (0.16 mg/rat/day); 510 ± 122 cpm/ml in assay [3] (0.33 mg/rat/day); 385 ± 47 cpm/ml in assay [3] (1.0 mg/rat/day); 383 ± 38 cpm/ml in assay [3] (3.0 mg/rat/day); 340 ± 50 cpm/ml in assay [3] (7.5 mg/rat/day). In addition, the “Cholesterol Levels, HDL” value was determined as 44.0 ± 10.6 Mg/100 ml in assay [3] (0.16 mg/rat/day); 27.6 ± 3.5 Mg/100 ml in assay [3] (0.33 mg/rat/day); 28.6 ± 1.9 Mg/100 ml in assay [3] (1.0 mg/rat/day); 28.8 ± 4.3 Mg/100 ml in assay [3] (3.0 mg/rat/day); 14.3 ± 0.33 Mg/100 ml in assay [3] (7.5 mg/rat/day). Moreover, the “14C-Acetate Incorporation, Inhibition” value in assay [3] (0.16 mg/rat/day) came to 42%; in assay [3] (0.33 mg/rat/day), 58%; in assay [3] (1.0 mg/rat/day) it was 68%; in assay [3] (3.0 mg/rat/day) it was 69%; in assay [3] (7.5 mg/rat/day), 72%.

Consider `CC(C)CCC[C@@H](C)[C@H]1CC(=O)C2=C3CC[C@H]4C[C@@H](O)CC[C@]4(C)[C@H]3CC[C@@]21C` [Compound 27, 3β-Hydroxy-5α-cholest-8(14)-ene-15-one, reference compound], for which the “Cholesterol levels, LDL” value is 34 ± 2 mg/100 mL in assay [2] (setting [4]), 31 ± 2 mg/100 mL in assay [2] (setting [6]), 23 ± 2 mg/100 mL in assay [2] (setting [8]) and 41 ± 1.5 mg/100 mL in assay [2] (setting [10]). Moreover, the “Cholesterol Levels, Total” value worked out at 74 ± 3 mg/100 mL in assay [2] (setting [5]), 69 ± 2 mg/100 mL in assay [2] (setting [7]), 48 ± 4 mg/100 mL in assay [2] (setting [9]) and 66 ± 2 mg/100 mL in assay [2] (setting [11]).

Regarding `CC(C)CCC[C@@H](C)[C@H]1CC(=O)C2=C3CC[C@H]4C[C@@H](O)CC[C@]4(C)[C@H]3CC[C@@]21C` [drawing 26], the IC50 in assay [1] was determined as 1.4 µM.

On to `CC(C)CCC[C@@H](C)[C@H]1Cc2nnc3c4c2[C@]1(C)CC[C@@H]4[C@@]1(C)CC[C@H](O)C[C@@H]1C3` [drawing 35], for which the IC50 in assay [1] worked out at 0.09 µM.

With `CC(C)CCC[C@@H](C)[C@H]1Cc2cnc3c4c2[C@]1(C)CC[C@@H]4[C@@]1(C)CC[C@H](O)C[C@@H]1C3` [drawing 39], the IC50 in assay [1] is 0.05 µM.
